System: P12-Ichikawa
Assay: cell viability relative to DMSO control; higher = less cytotoxic
Conditions: 48 h
Outline: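 NOMO1 or SEM (500 cells/well) or P12-Ichikawa (1000 cells/well) leukemia cells were adapted for at least four passages in each medium. They were seeded in 1536-well plates (5 μl) and pin-dosed with library compounds in DMSO over an 11-point threefold series, 47 μM to 0.79 nM. CellTiter-Glo One luminescence was read after 48 h at 37°C. Viability is the per-plate percentage relative to DMSO wells, with cell-free wells as background.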

[1] = HPLM + 10% dialyzed FBS, 0.000781 µM
[2] = HPLM + 10% dialyzed FBS, 0.00234 µM
[3] = HPLM + 10% dialyzed FBS, 0.00702 µM
[4] = HPLM + 10% dialyzed FBS, 0.0211 µM
[5] = HPLM + 10% dialyzed FBS, 0.0632 µM
[6] = HPLM + 10% dialyzed FBS, 0.19 µM
[7] = HPLM + 10% dialyzed FBS, 0.569 µM
[8] = HPLM + 10% dialyzed FBS, 1.71 µM
[9] = HPLM + 10% dialyzed FBS, 5.12 µM
[10] = HPLM + 10% dialyzed FBS, 15.4 µM
[11] = HPLM + 10% dialyzed FBS, 46.1 µM
[12] = RPMI 5 mM glucose + 10% FBS, 0.000781 µM
[13] = RPMI 5 mM glucose + 10% FBS, 0.00234 µM
[14] = RPMI 5 mM glucose + 10% FBS, 0.00702 µM
[15] = RPMI 5 mM glucose + 10% FBS, 0.0211 µM
[16] = RPMI 5 mM glucose + 10% FBS, 0.0632 µM
[17] = RPMI 5 mM glucose + 10% FBS, 0.19 µM
[18] = RPMI 5 mM glucose + 10% FBS, 0.569 µM
[19] = RPMI 5 mM glucose + 10% FBS, 1.71 µM
[20] = RPMI 5 mM glucose + 10% FBS, 5.12 µM
[21] = RPMI 5 mM glucose + 10% FBS, 15.4 µM
[22] = RPMI 5 mM glucose + 10% FBS, 46.1 µM
[23] = RPMI 5 mM glucose + 10% dialyzed FBS, 0.000781 µM
[24] = RPMI 5 mM glucose + 10% dialyzed FBS, 0.00234 µM
[25] = RPMI 5 mM glucose + 10% dialyzed FBS, 0.00702 µM
[26] = RPMI 5 mM glucose + 10% dialyzed FBS, 0.0211 µM
[27] = RPMI 5 mM glucose + 10% dialyzed FBS, 0.0632 µM
[28] = RPMI 5 mM glucose + 10% dialyzed FBS, 0.19 µM
[29] = RPMI 5 mM glucose + 10% dialyzed FBS, 0.569 µM
[30] = RPMI 5 mM glucose + 10% dialyzed FBS, 1.71 µM
[31] = RPMI 5 mM glucose + 10% dialyzed FBS, 5.12 µM
[32] = RPMI 5 mM glucose + 10% dialyzed FBS, 15.4 µM
[33] = RPMI 5 mM glucose + 10% dialyzed FBS, 46.1 µM

| Compound | cell viability [1] [%] | cell viability [2] [%] | cell viability [3] [%] | cell viability [4] [%] | cell viability [5] [%] | cell viability [6] [%] | cell viability [7] [%] | cell viability [8] [%] | cell viability [9] [%] | cell viability [10] [%] | cell viability [11] [%] | cell viability [12] [%] | cell viability [13] [%] | cell viability [14] [%] | cell viability [15] [%] | cell viability [16] [%] | cell viability [17] [%] | cell viability [18] [%] | cell viability [19] [%] | cell viability [20] [%] | cell viability [21] [%] | cell viability [22] [%] | cell viability [23] [%] | cell viability [24] [%] | cell viability [25] [%] | cell viability [26] [%] | cell viability [27] [%] | cell viability [28] [%] | cell viability [29] [%] | cell viability [30] [%] | cell viability [31] [%] | cell viability [32] [%] | cell viability [33] [%] |
| --- | --- | --- | --- | --- | --- | --- | --- | --- | --- | --- | --- | --- | --- | --- | --- | --- | --- | --- | --- | --- | --- | --- | --- | --- | --- | --- | --- | --- | --- | --- | --- | --- | --- |
| CC(Cc1ccc(O)c(O)c1)(NN)C(=O)O (stereo unspecified) | 110 | 112 | 107 | 111 | 130 | 114 | 105 | 102 | 100 | 101 | 78.5 | 102 | 113 | 122 | 120 | 113 | 111 | 108 | 100 | 112 | 113 | 65.3 | 107 | 116 | 115 | 115 | 114 | 109 | 108 | 104 | 110 | 110 | 55.7 |
| COCCCOc1ccnc(C[S+]([O-])c2nc3ccccc3[nH]2)c1C (stereo unspecified) | 107 | 116 | 109 | 105 | 121 | 113 | 123 | 119 | 125 | 113 | 117 | 114 | 109 | 117 | 106 | 112 | 125 | 135 | 130 | 120 | 131 | 119 | 105 | 105 | 114 | 105 | 134 | 132 | 131 | 113 | 115 | 123 | 121 |
| CNC(=O)c1ccc(N2C(=S)N(c3ccc(C#N)c(C(F)(F)F)c3)C(=O)C2(C)C)cc1F | 98.8 | 106 | 79.6 | 110 | 123 | 117 | 115 | 124 | 114 | 108 | 107 | 107 | 119 | 72 | 109 | 123 | 117 | 122 | 120 | 124 | 116 | 98.5 | 102 | 113 | 80.4 | 108 | 120 | 117 | 119 | 122 | 122 | 112 | 91.1 |
| FC1=CC=C(CN2\C=C/C=C(/C(=O)N[C@@H](COC3=CC4=C(NC(=O)N4)C=C3)C5=CC=CC=C5)C2=O)C=C1F | 89.1 | 97.2 | 98.9 | 96.2 | 104 | 98.8 | 97.3 | 89.2 | 76.4 | 70.1 | 64.7 | 82.9 | 90.2 | 85.9 | 86.8 | 88.9 | 88.9 | 86.9 | 72.6 | 53.9 | 50.5 | 44.8 | 81.6 | 89.4 | 90.5 | 94.6 | 89.3 | 94.5 | 79.9 | 76.6 | 58.5 | 54.2 | 45.4 |
| CC1=CC=C2\N=C/3N(CC[C@@]3(O)C(=O)C2=C1)C4=CC=CC=C4 | 97.2 | 98.3 | 94.9 | 94.6 | 99.3 | 88.8 | 92.1 | 95.3 | 82 | 86.6 | 89.5 | 84.8 | 82.3 | 92 | 90.2 | 92.4 | 89.2 | 89 | 90.2 | 83.8 | 86.7 | 86.9 | 95.4 | 86 | 84.1 | 83.1 | 84.5 | 81.1 | 90 | 82.1 | 81.9 | 76.4 | 78.7 |
| CN(CCOc1ccc(NS(C)(=O)=O)cc1)CCc1ccc(NS(C)(=O)=O)cc1 | 108 | 114 | 119 | 115 | 126 | 127 | 127 | 111 | 118 | 123 | 121 | 118 | 127 | 116 | 126 | 121 | 129 | 131 | 126 | 125 | 136 | 126 | 113 | 114 | 114 | 114 | 117 | 129 | 123 | 122 | 120 | 120 | 115 |
| CO[C@@H]1[C@@H](OC(N)=O)[C@@H](O)[C@H](OC2=CC=C3\C(=C(NC(=O)C4=CC=C([O-])C(=C4)CC=C(C)C)/C(=O)OC3=C2C)O)OC1(C)C | 118 | 108 | 119 | 115 | 111 | 106 | 110 | 104 | 102 | 100 | 100 | 107 | 108 | 124 | 110 | 114 | 110 | 113 | 110 | 108 | 94.2 | 97.8 | 109 | 105 | 109 | 110 | 105 | 106 | 108 | 109 | 98 | 98.5 | 88.3 |

Reference: the supplement of paper PMC11451515
